{"source": "patent US11324743B2", "about": "“Treatment for the non alcoholic steatohepatitis and fibrosis” (METABOLYS, priority 2016, dated 2022)", "key": {"STAM animal model": {"test_system": "STAM animal model", "conditions": "reference compound; cited from earlier work"}, "NASH mice (STAM model) [1]": {"test_system": "NASH mice (STAM model)", "assay": "In vivo study 1 to assess effects on NASH (STAM model)", "parameters": "species or system C57BL/6 mice", "from_the_text": "(§1) The study was made on STAM model.\n(§2) Pathogen-free fourteen day-pregnant C57BL/6 mice have been obtained from Japan SLC, Inc. (Japan). NASH has been established in male mice by a single subcutaneous injection of streptozotocin (Sigma, USA) after birth and feeding with a high fat diet (CLEA Japan, Japan) ad libitum after four weeks of age (day 28±2). Mice have been randomized into three groups of ten mice at six weeks of age (day 42±2), and three groups of ten mice at nine weeks of age (day 63±2), in the days before the start of treatment. Individual body weights have been measured daily during the treatment period. Food consumption has been measured twice per week during the treatment period. Survival, clinical signs and behavior of mice have been monitored daily.\nThe NASH in vivo study had 3 arms:\n(§3) Group 1 (Vehicle): Ten NASH mice have been orally administered the same vehicle (0.5% methyl cellulose in water) as the mice receiving compound (1).\nGroup 2 (Telmisartan): Five mice have been administered the same vehicle supplemented with Telmisartan at a dose of 100 mg/kg (in 0.5% methyl cellulose in water) once daily from six to nine (6 to 9) weeks of age.\nGroup 3 (compound (1)): Ten NASH mice have be orally administered vehicle supplemented with compound (1) at a dose of 100 mg/kg (in 0.5% methyl cellulose in water) once daily from six to nine (6 to 9) weeks of age. The assessed parameters and histological outcome measures are described below.\n(§4) The following measurements have been conducted for both in vivo studies: • Individual liver weight • Individual body weight • Plasma ALT (Alanine AminoTransferase), AST (Aspartate AminoTransferase), triglyceride, and total cholesterol have been measured by FUJI DRI-CHEM (Fujifilm, Japan) • Liver triglyceride has been quantified by Triglyceride E-test kit (Wako, Japan) • Histological analyses for liver sections (according to routine methods) • HE (Hematoxylin Eosin) staining and estimation of NAFLD Activity score (NAS) […]"}, "NASH mice (STAM model) [2]": {"test_system": "NASH mice (STAM model)", "assay": "In vivo study 2 to assess effects on fibrosis (STAM model)", "parameters": "species or system C57BL/6 mice", "from_the_text": "as §1, §2\nThe fibrosis in vivo study had 3 arms:\nas §3\nGroup 2 (Telmisartan): Five mice have been administered the same vehicle supplemented with Telmisartan at a dose of 100 mg/kg (in 0.5% methyl cellulose in water) once daily from nine to twelve (9 to 12) weeks of age.\nGroup 3 (compound (1)): Ten NASH mice have been orally administered vehicle supplemented with compound (1) at a dose of 100 mg/kg (in 0.5% methyl cellulose in water) once daily from nine to twelve (9 to 12) weeks of age. The assessed parameters and histological outcome measures are described below.\nas §4"}}}
{"compound": "CCCc1nc2c(C)cc(-c3nc4ccccc4n3C)cc2n1Cc1ccc(-c2ccccc2C(=O)O)cc1", "note": "[Telmisartan]", "values": [{"measurement": "activity to treat NASH and fibrosis", "setting": "STAM animal model", "value": "active"}]}
{"compound": "O=C(O)CCC(=O)c1ccc(OCCN2CCN(c3ccccn3)CC2)cc1", "note": "[Compound (1)]", "values": [{"measurement": "amount of liver triglycerides (TG)", "setting": "NASH mice (STAM model) [1]; 100 mg/kg orally once daily from 6 to 9 weeks of age (FIG. 2)", "value": "reduction"}, {"measurement": "amount of plasma triglycerides (TG)", "setting": "NASH mice (STAM model) [1]; 100 mg/kg orally once daily from 6 to 9 weeks of age (FIG. 3)", "value": "reduction"}, {"measurement": "NAFLD activity score (NAS)", "setting": "NASH mice (STAM model) [1]; 100 mg/kg orally once daily from 6 to 9 weeks of age, in comparison to both vehicle and Telmisartan", "value": "significant reduction"}, {"measurement": "amount of liver triglycerides (TG)", "setting": "NASH mice (STAM model) [2]; 100 mg/kg orally once daily from 9 to 12 weeks of age (FIG. 2)", "value": "reduction"}, {"measurement": "amount of plasma triglycerides (TG)", "setting": "NASH mice (STAM model) [2]; 100 mg/kg orally once daily from 9 to 12 weeks of age (FIG. 3), effect especially in study 2", "value": "reduction"}, {"measurement": "NAFLD activity score (NAS)", "setting": "NASH mice (STAM model) [2]; 100 mg/kg orally once daily from 9 to 12 weeks of age, in comparison to both vehicle and Telmisartan", "value": "significant reduction"}]}
